The experiment addresses T1, SIRT1 (Homo sapiens, UniProt Q96EB6).
T1 sequence (Q96EB6 1-747): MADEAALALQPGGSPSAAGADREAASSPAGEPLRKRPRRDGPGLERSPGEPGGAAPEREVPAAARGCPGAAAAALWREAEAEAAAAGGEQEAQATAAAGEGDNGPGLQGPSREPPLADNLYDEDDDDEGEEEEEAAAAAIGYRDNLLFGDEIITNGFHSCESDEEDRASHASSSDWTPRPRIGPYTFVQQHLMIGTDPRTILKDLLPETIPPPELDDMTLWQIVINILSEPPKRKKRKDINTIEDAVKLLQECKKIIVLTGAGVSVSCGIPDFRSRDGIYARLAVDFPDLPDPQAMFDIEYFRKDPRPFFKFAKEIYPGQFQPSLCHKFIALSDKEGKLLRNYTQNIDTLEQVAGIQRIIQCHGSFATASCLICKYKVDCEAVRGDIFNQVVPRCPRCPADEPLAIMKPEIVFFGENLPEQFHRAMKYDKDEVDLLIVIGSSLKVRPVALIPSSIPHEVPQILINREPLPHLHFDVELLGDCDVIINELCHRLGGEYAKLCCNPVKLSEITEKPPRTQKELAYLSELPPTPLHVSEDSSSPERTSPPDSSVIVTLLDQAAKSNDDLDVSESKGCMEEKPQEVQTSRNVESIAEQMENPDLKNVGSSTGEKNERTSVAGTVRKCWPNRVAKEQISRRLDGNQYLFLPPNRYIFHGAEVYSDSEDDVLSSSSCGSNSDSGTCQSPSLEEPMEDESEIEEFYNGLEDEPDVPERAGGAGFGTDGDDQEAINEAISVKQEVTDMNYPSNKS
As to the kind of experiment: Mass spectrometry based assay to identify modulators of SIRT1 activity (deacetylation of p53-based acetylated peptide substrate). Conditions: 10 nM SIRT1, 0.5 μM peptide substrate, 120 μM βNAD+, 25 minutes at 25° C.; for EC1.5: SIRT1 activation. It counts as biochemical. An excerpt: A mass spectrometry based assay was used to identify modulators of SIRT1 activity. The mass spectrometry based assay utilizes a peptide having 20 amino acid residues as follows: Ac-EE-K(biotin)-GQSTSSHSK(Ac)NleSTEG-K(5TMR)-EE-NH2 (SEQ ID NO: 1) wherein K(Ac) is an acetylated lysine residue and Nle is a norleucine. The peptide is labeled with the fluorophore 5TMR (excitation 540 nm/emission 580 nm) at the C-terminus. The sequence of the peptide substrate is based on p53 with several modifications. In addition, the methionine residue naturally present in the sequence was replaced with the norleucine because the methionine may be susceptible to oxidation during synthesis and purification.
The mass spectrometry assay is conducted as follows: 0.5 μM peptide substrate and 120 μM βNAD^+ is incubated with 10 nM SIRT1 for 25 minutes at 25° C. in a reaction buffer (50 mM Tris-acetate pH 8, 137 mM NaCl, 2.7 mM KCl, 1 mM MgCl2, 5 mM DTT, 0.05% BSA). Test compounds may be added to the reaction as described above. The SirT1 gene is cloned into a T7-promoter containing vector and transformed into BL21(DE3). After the 25 minute incubation with SIRT1, 10 μL of 10% formic acid is added to stop the reaction. Reactions are sealed and frozen for later mass spec analysis. Determination of the mass of the substrate peptide allows for precise determination of the degree of acetylation (i.e. starting material) as compared to deacetylated peptide (product).
A control for inhibition of sirtuin activity is conducted by adding 1 μL of 500 mM nicotinamide as a negative control at the start of the reaction (e.g., permits determination of maximum sirtuin inhibition). A control for activation of sirtuin activity is conducted using 10 nM of sirtuin protein, with 1 μL of DMSO in place of compound, to determine the amount of deacetylation of the substrate at a given timepoint within the linear range of the assay. This timepoint is the same as that used for test compounds and, within the linear range, the endpoint represents a change in velocity.
For the above assay, SIRT1 protein was expressed and purified as follows. The SirT1 gene was cloned into a T7-promoter containing vector and transformed into BL21(DE3). The protein was expressed by induction with 1 mM IPTG as an N-terminal His-tag fusion protein at 18° C. overnight and harvested at 30,000×g. Cells were lysed with lysozyme in lysis buffer (50 mM Tris-HCl, 2 mM Tris[2-carboxyethyl]phosphine (TCEP), 10 μM ZnCl2, 200 mM NaCl) and further treated with sonication for 10 min for complete lysis. The protein was purified over a Ni-NTA column (Amersham) and fractions containing pure protein were pooled, concentrated and run over a sizing column (Sephadex S200 26/60 global). The peak containing soluble protein was collected and run on an Ion-exchange column (MonoQ). Gradient elution (200 mM-500 mM NaCl) yielded pure protein. This protein was concentrated and dialyzed against dialysis buffer (20 mM Tris-HCl, 2 mM TCEP) overnight. The protein was aliquoted and frozen at −80° C. until further use.
Sirtuin modulating compounds that activated SIRT1 were identified using the assay described above and are shown below in Table 1. The EC1-5 values for the activating compounds are represented by A′ (EC1.5<250 nM), A (EC1.5≧250 nM and ≦1 uM), B (EC1.5>1 and ≦10 uM), or C (EC1.5>10 uM). The percent maximum fold activation is represented by A (Fold activation≧300%), B (Fold Activation≧150% and <300%), or C (Fold Activation<150%).

From patent publication US20110009381A1, “SOLUBILIZED THIAZOLOPYRIDINES” (Sirtis Pharmaceuticals, Inc., priority 2007, published 2011) come the findings set out here.

Regarding `Cc1nc(NCCN(C)C)cc(C(=O)Nc2ccccc2-c2nc3cccnc3s2)n1` [Compound 28], the “FOLD ACT. (percent maximum fold activation)” value was “A (Fold activation≧300%)”; the EC1.5 result is “B (EC1.5>1 and ≦10 uM)”.

On to `COCCN(C)c1cc(C(=O)Nc2ccccc2-c2nc3ccncc3s2)nc(-c2ccccc2)n1` [Compound 29], for which the “FOLD ACT. (percent maximum fold activation)” value is “A (Fold activation≧300%)” and the EC1.5 result is given as “A′ (EC1.5<250 nM)”.

Turning to `O=C(Nc1ccccc1-c1nc2ccncc2s1)c1cc(NCCN2CCOCC2)nc(-c2ccccc2)n1` [Compound 30], the “FOLD ACT. (percent maximum fold activation)” value is “A (Fold activation≧300%)”; the EC1.5 entry was “A (EC1.5≧250 nM and ≦1 uM)”.

Regarding `O=C(Nc1ccccc1-c1nc2ccncc2s1)c1cc(NCc2cccnc2)nc(-c2ccccc2)n1` [Compound 31], the “FOLD ACT. (percent maximum fold activation)” value was “B (Fold Activation≧150% and <300%)”; the EC1.5 entry was “A (EC1.5≧250 nM and ≦1 uM)”.

On to `O=C(Nc1ccccc1-c1nc2ccncc2s1)c1cc(NCc2ccncc2)nc(-c2ccccc2)n1` [Compound 32], for which the “FOLD ACT. (percent maximum fold activation)” value is “A (Fold activation≧300%)”; the EC1.5 entry is “A (EC1.5≧250 nM and ≦1 uM)”.

As to `CN(C)CCNCCOc1cc(C(=O)Nc2ccccc2-c2nc3cccnc3s2)nc(-c2ccccc2)c1` [Compound 33], the “FOLD ACT. (percent maximum fold activation)” value is on record as “A (Fold activation≧300%)” and the EC1.5 result is listed as “A′ (EC1.5<250 nM)”.

In the case of `O=C(Nc1ccccc1-c1nc2cccnc2s1)c1cc(O)cc(-c2ccccc2)n1` [Compound 34], the “FOLD ACT. (percent maximum fold activation)” value is “A (Fold activation≧300%)”; the EC1.5 entry is “A (EC1.5≧250 nM and ≦1 uM)”.

In the case of `C[C@@H]1CN(c2cc(C(=O)Nc3ccccc3-c3nc4cccnc4s3)nc(-c3ccccc3)n2)C[C@H](C)N1` [Compound 35], the “FOLD ACT. (percent maximum fold activation)” value was “A (Fold activation≧300%)” and the EC1.5 entry was “A′ (EC1.5<250 nM)”.

Regarding `C[C@@H]1CN(CCOc2cc(C(=O)Nc3ccccc3-c3nc4cccnc4s3)nc(-c3ccccc3)c2)C[C@H](C)O1` [Compound 36], the “FOLD ACT. (percent maximum fold activation)” value was “A (Fold activation≧300%)” and the EC1.5 entry is “A′ (EC1.5<250 nM)”.

Consider `O=C(Nc1ccccc1-c1nc2cccnc2s1)c1cc(N2CCCNCC2)nc(-c2ccccc2)n1` [Compound 37], for which the “FOLD ACT. (percent maximum fold activation)” value is recorded as “A (Fold activation≧300%)” and the EC1.5 result was “A′ (EC1.5<250 nM)”.

In the case of `CN(C)c1cc(C(=O)Nc2ccccc2-c2nc3cccnc3s2)nc(-c2ccccc2)n1` [Compound 38], the “FOLD ACT. (percent maximum fold activation)” value is “B (Fold Activation≧150% and <300%)”; the EC1.5 result is “B (EC1.5>1 and ≦10 uM)”.

For the compound `O=C(Nc1ccccc1-c1nc2cccnc2s1)c1cc(NCCO)nc(-c2ccccc2)n1` [Compound 39], the “FOLD ACT. (percent maximum fold activation)” value was “A (Fold activation≧300%)” and the EC1.5 entry is given as “A′ (EC1.5<250 nM)”.

As to `O=C(Nc1ccccc1-c1nc2cccnc2s1)c1cc(NCCCO)nc(-c2ccccc2)n1` [Compound 40], the “FOLD ACT. (percent maximum fold activation)” value is on record as “A (Fold activation≧300%)” and the EC1.5 entry is “A′ (EC1.5<250 nM)”.

Consider `CCN(CC)CCNc1cc(C(=O)Nc2ccccc2-c2nc3cccnc3s2)nc(-c2ccccc2)n1` [Compound 41], for which the “FOLD ACT. (percent maximum fold activation)” value is “A (Fold activation≧300%)” and the EC1.5 entry is “A′ (EC1.5<250 nM)”.

Take `CCCCNc1cc(C(=O)Nc2ccccc2-c2nc3cccnc3s2)nc(-c2ccccc2)n1` [Compound 42]: the “FOLD ACT. (percent maximum fold activation)” value is on record as “C (Fold Activation<150%)” and the EC1.5 result is listed as “C (EC1.5>10 uM)”.

For the compound `CCOC(=O)CCNc1cc(C(=O)Nc2ccccc2-c2nc3cccnc3s2)nc(-c2ccccc2)n1` [Compound 43], the “FOLD ACT. (percent maximum fold activation)” value is “B (Fold Activation≧150% and <300%)”; the EC1.5 entry is “A (EC1.5≧250 nM and ≦1 uM)”.

As to `O=C(O)CCNc1cc(C(=O)Nc2ccccc2-c2nc3cccnc3s2)nc(-c2ccccc2)n1` [Compound 44], the “FOLD ACT. (percent maximum fold activation)” value was “A (Fold activation≧300%)”; the EC1.5 result was “A (EC1.5≧250 nM and ≦1 uM)”.

As to `CSCCNc1cc(C(=O)Nc2ccccc2-c2nc3cccnc3s2)nc(-c2ccccc2)n1` [Compound 45], the “FOLD ACT. (percent maximum fold activation)” value is “B (Fold Activation≧150% and <300%)”; the EC1.5 entry is “B (EC1.5>1 and ≦10 uM)”.

As for `CS(=O)(=O)CCNc1cc(C(=O)Nc2ccccc2-c2nc3cccnc3s2)nc(-c2ccccc2)n1` [Compound 46], the “FOLD ACT. (percent maximum fold activation)” value was “A (Fold activation≧300%)” and the EC1.5 result is recorded as “A′ (EC1.5<250 nM)”.

Turning to `COCCN(C)c1cc(C(=O)Nc2ccccc2-c2nc3cccnc3s2)nc(-c2ccccc2)n1` [Compound 47], the “FOLD ACT. (percent maximum fold activation)” value is recorded as “A (Fold activation≧300%)” and the EC1.5 entry was “A′ (EC1.5<250 nM)”.

`O=C(Nc1ccccc1-c1nc2cccnc2s1)c1cc(NCCN2CCNCC2)nc(-c2ccccc2)n1` [Compound 48]: the “FOLD ACT. (percent maximum fold activation)” value was “A (Fold activation≧300%)” and the EC1.5 entry is “A′ (EC1.5<250 nM)”.

In the case of `O=C(Nc1ccccc1-c1nc2cccnc2s1)c1cc(NC2CCNCC2)nc(-c2ccccc2)n1` [Compound 49], the “FOLD ACT. (percent maximum fold activation)” value is recorded as “A (Fold activation≧300%)” and the EC1.5 entry is recorded as “A′ (EC1.5<250 nM)”.

Take `COCCN(C)CCOc1cc(C(=O)Nc2ccccc2-c2nc3cccnc3s2)nc(-c2ccccc2)c1` [Compound 50]: the “FOLD ACT. (percent maximum fold activation)” value was “A (Fold activation≧300%)” and the EC1.5 result was “A′ (EC1.5<250 nM)”.

For the compound `CC(=O)NCCNc1cc(C(=O)Nc2ccccc2-c2nc3cccnc3s2)nc(-c2ccccc2)n1` [Compound 51], the “FOLD ACT. (percent maximum fold activation)” value is listed as “A (Fold activation≧300%)” and the EC1.5 entry was “A′ (EC1.5<250 nM)”.

Take `CC(C)NCCNc1cc(C(=O)Nc2ccccc2-c2nc3cccnc3s2)nc(-c2ccccc2)n1` [Compound 52]: the “FOLD ACT. (percent maximum fold activation)” value is “A (Fold activation≧300%)”; the EC1.5 result was “A (EC1.5≧250 nM and ≦1 uM)”.

Take `Cc1nc(CCNc2cc(C(=O)Nc3ccccc3-c3nc4cccnc4s3)nc(-c3ccccc3)n2)cs1` [Compound 53]: the “FOLD ACT. (percent maximum fold activation)” value is “B (Fold Activation≧150% and <300%)”; the EC1.5 result was “A (EC1.5≧250 nM and ≦1 uM)”.

For `O=C(Nc1ccccc1-c1nc2cccnc2s1)c1cc(NCc2ccccc2)nc(-c2ccccc2)n1` [Compound 54], the “FOLD ACT. (percent maximum fold activation)” value is given as “C (Fold Activation<150%)” and the EC1.5 entry is listed as “C (EC1.5>10 uM)”.
